Laboratory results published in article PMC6332430, “Design, Synthesis and Biological Evaluation of Novel Substituted N,N′-Diaryl ureas as Potent p38 Inhibitors” (Molecules, 2015).
Where two headings read alike, the source gives them in different places.

How the values were obtained:
Experiment in all cases: TR-FRET kinase assay, GFP-ATF2 ([…]-96) phosphorylation
Assay type in all cases: biochemical
MAPK14/p38α [1] = molecular target: T1, MAPK14/p38α (Homo sapiens, UniProt Q16539)
p38β = molecular target: T2, p38β (Homo sapiens, UniProt Q15759)
T2 construct: gene MAPK11

MAPK14/p38α [2] = molecular target: T1, MAPK14/p38α; settings: 90 μM ATP, 0.4 μM GFP-ATF2, 10 mM MgCl2, pH 7.5, RT, 15 min preincubation; unreliable (the two tables disagree)
p38γ = molecular target: T3, p38γ (Homo sapiens, UniProt P53778)
T3 construct: gene MAPK12
T3 sequence (P53778 1-367): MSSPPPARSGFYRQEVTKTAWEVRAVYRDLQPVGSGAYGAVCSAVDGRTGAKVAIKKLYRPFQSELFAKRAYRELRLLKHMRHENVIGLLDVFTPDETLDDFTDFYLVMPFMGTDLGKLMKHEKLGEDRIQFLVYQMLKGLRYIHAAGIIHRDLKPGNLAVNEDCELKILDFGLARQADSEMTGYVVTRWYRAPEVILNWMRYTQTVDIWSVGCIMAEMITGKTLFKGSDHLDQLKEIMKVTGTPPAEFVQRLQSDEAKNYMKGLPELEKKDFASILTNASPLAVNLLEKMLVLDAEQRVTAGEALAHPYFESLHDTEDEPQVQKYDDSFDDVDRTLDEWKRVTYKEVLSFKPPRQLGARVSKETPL

p38δ = molecular target: T4, p38δ (Homo sapiens, UniProt O15264)
T4 construct: gene MAPK13
T4 sequence (O15264 1-365): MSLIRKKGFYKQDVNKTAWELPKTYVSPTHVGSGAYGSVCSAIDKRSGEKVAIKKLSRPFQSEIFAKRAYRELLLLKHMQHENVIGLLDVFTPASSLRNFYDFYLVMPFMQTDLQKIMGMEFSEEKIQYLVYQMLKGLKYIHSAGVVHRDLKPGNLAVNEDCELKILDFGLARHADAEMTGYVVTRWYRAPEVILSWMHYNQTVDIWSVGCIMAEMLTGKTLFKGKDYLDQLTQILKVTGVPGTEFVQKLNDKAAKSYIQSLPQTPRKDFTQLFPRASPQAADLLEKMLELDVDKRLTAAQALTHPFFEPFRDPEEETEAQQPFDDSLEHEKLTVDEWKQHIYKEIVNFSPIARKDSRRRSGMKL

T1 sequence (Q16539 2-360): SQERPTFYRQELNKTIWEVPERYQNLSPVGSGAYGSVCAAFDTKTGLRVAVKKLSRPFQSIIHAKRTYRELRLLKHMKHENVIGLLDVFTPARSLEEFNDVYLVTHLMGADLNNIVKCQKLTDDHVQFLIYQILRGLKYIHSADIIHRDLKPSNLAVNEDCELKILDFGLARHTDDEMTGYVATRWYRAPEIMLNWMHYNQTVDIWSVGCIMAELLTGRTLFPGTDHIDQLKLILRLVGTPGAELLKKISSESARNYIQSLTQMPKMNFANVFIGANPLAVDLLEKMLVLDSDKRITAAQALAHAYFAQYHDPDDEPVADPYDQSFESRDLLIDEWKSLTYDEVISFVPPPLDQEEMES
T2 sequence (Q15759 whole entry): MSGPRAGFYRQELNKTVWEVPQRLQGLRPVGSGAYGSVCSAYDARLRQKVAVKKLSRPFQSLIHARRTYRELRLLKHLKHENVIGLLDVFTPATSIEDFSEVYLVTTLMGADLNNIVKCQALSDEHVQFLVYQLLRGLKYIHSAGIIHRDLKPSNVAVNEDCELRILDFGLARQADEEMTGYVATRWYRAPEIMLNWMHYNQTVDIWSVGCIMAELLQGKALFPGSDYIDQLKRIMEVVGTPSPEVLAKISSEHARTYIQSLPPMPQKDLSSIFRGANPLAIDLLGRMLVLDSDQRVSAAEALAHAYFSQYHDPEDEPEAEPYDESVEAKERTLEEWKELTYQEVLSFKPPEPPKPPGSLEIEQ

Row | Structure (SMILES) | IC50 (MAPK14/p38α [1]) [nM] | also measured
1 | COC(=O)Nc1nc2ccc(Oc3ccccc3CNC(=O)Nc3cc(C(C)(C)C)nn3-c3ccc(C)cc3)cc2s1 [9c, Methyl(6-(2-((3-(3-(tert-butyl)-1-(p-tolyl)-1H-pyrazol-5-yl)ureido)methyl)phenoxy)benzo[d]thiazol-2-yl)carbamate] | 1.02 ± 0.09 | –
2 | COC(=O)Nc1nc2ccc(Oc3ccccc3CNC(=O)Nc3cc(C(C)(C)C)nn3-c3ccc([N+](=O)[O-])cc3)cc2s1 [9a, Methyl(6-(2-((3-(3-(tert-butyl)-1-(4-nitrophenyl)-1H-pyrazol-5-yl)ureido)methyl)phenoxy)benzo[d]thiazol-2-yl)carbamate] | 1.31 ± 0.09 | –
3 | Cc1ccc(-n2nc(C(C)(C)C)cc2NC(=O)NCc2ccccc2Oc2ccc3nc(NC(=O)NCCCl)sc3c2)cc1 [9e, 1-(3-(Tert-butyl)-1-(p-tolyl)-1H-pyrazol-5-yl)-3-(2-((2-(3-(2-chloroethyl)ureido)benzo[d]thiazol-6-yl)oxy)benzyl)urea] | – | IC50 (MAPK14/p38α [1]; read-out: p38α IC50 (nM) ^a): 3.29 ± 0.25 nM
4 | CCNC(=O)Nc1nc2ccc(Oc3ccc(F)cc3CNC(=O)Nc3cc(C(C)(C)C)nn3-c3ccc(C)cc3)cc2s1 [9g, 1-(3-(Tert-butyl)-1-(p-tolyl)-1H-pyrazol-5-yl)-3-(2-((2-(3-ethylureido)benzo[d]thiazol-6-yl)oxy)-5-fluorobenzyl)urea] | – | IC50 (p38β): 20.1 ± 1.4 nM; p38α IC50 (nM) ^a (MAPK14/p38α [2]): 0.844 ± 1.04 nM; IC50 (p38γ): 424 ± 5.75 nM; IC50 (p38δ): 948.4 ± 8.35 nM
5 | Cc1ccc(-n2nc(C(C)(C)C)cc2NC(=O)NCc2cc(F)ccc2Oc2ccc3nc(N)sc3c2)cc1 [8b, 1-(2-((2-Aminobenzo[d]thiazol-6-yl)oxy)-5-fluorobenzyl)-3-(3-(tert-butyl)-1-(p-tolyl)-1H-pyrazol-5-yl)urea] | 1.11 ± 0.2 | –
6 | Cc1ccc(-n2nc(C(C)(C)C)cc2NC(=O)NCc2cc(F)ccc2Oc2ccc3nc(NC(=O)NC4CCCCC4)sc3c2)cc1 [9h, 1-(3-(Tert-butyl)-1-(p-tolyl)-1H-pyrazol-5-yl)-3-(2-((2-(3-cyclohexylureido)benzo[d]thiazol-6-yl)oxy)-5-fluorobenzyl)urea] | 12.4 ± 0.18 | –
7 | Cc1ccc(-n2nc(C(C)(C)C)cc2NC(=O)NCc2ccccc2Oc2ccc3nc(NC(=O)NC(C)(C)C)sc3c2)cc1 [9b, 1-(3-(Tert-butyl)-1-(p-tolyl)-1H-pyrazol-5-yl)-3-(2-((2-(3-(tert-butyl)ureido)benzo[d]thiazol-6-yl)oxy)benzyl)urea] | 6.16 ± 0.07 | –
8 | Cc1ccc(-n2nc(C(C)(C)C)cc2NC(=O)NCc2cc(F)ccc2Oc2ccc3nc(NC(=O)NC(C)(C)C)sc3c2)cc1 [9i, 1-(3-(Tert-butyl)-1-(p-tolyl)-1H-pyrazol-5-yl)-3-(2-((2-(3-(tert-butyl)ureido)benzo[d]thiazol-6-yl)oxy)-5-fluorobenzyl)urea] | 7.54 ± 1.99 | –
9 | CCNC(=O)Nc1nc2ccc(Oc3ccccc3CNC(=O)Nc3cc(C(C)(C)C)nn3-c3ccc(C)cc3)cc2s1 [9d, 1-(3-(Tert-butyl)-1-(p-tolyl)-1H-pyrazol-5-yl)-3-(2-((2-(3-ethylureido)benzo[d]thiazol-6-yl)oxy)benzyl)urea] | 1.5 ± 0.24 | IC50 (p38β): 17.5 ± 1.25 nM; IC50 (p38γ): 191 ± 7.2 nM; IC50 (p38δ): 231 ± 7.15 nM
10 | Cc1ccc(-n2nc(C(C)(C)C)cc2NC(=O)NCc2ccccc2Oc2ccc3nc(NC(=O)NC4CCCCC4)sc3c2)cc1 [9f, 1-(3-(Tert-butyl)-1-(p-tolyl)-1H-pyrazol-5-yl)-3-(2-((2-(3-cyclohexylureido)benzo[d]thiazol-6-yl)oxy)benzyl)urea] | 4.499 ± 0.04 | –
11 | CC(C)(C)c1cc(NC(=O)NCc2ccccc2Oc2ccc3nc(N)sc3c2)n(-c2ccc([N+](=O)[O-])cc2)n1 [8a, 1-(2-((2-Aminobenzo[d]thiazol-6-yl)oxy)benzyl)-3-(3-(tert-butyl)-1-(4-nitrophenyl)-1H-pyrazol-5-yl)urea] | 2.878 ± 0.01 | –
12 | COC(=O)Nc1nc2ccc(Oc3ccc(F)cc3CNC(=O)Nc3cc(C(C)(C)C)nn3-c3ccc(C)cc3)cc2s1 [9j, Methyl(6-(2-((3-(3-(tert-butyl)-1-(p-tolyl)-1H-pyrazol-5-yl)ureido)methyl)-4-fluorophenoxy)benzo[d]thiazol-2-yl)carbamate] | 4.28 ± 1.14 | –
